Article PMC8787486 (mBio, 2022)

How the values were obtained:
BlaMab = target: T1, BlaMab (Mycobacteroides abscessus, UniProt B1MCI3); assay: nitrocefin competition kinetics with purified enzyme; ESI-MS carbamoyl-enzyme adduct (+[…] Da); Kd = koff/(k2/K); type: biochemical
T1 construct: gene MAB_2875

LdtMab4 = target: T2, LdtMab4 (Mycobacteroides abscessus, UniProt B1MKW1); assay: timed ESI-MS of intact protein, +[…] Da carbamoyl-enzyme adduct after […] h; type: binding
T2 construct: gene MAB_4537c
T2 sequence (B1MKW1 42-333): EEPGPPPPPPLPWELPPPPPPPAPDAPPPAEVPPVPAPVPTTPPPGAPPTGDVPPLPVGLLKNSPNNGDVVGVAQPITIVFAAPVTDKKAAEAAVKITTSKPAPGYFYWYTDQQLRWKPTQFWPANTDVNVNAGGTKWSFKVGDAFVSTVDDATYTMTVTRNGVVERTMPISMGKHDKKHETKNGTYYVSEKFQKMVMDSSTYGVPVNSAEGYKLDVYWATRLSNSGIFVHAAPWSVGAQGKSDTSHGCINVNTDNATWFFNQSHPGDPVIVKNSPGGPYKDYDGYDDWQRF

LdtMab2 = target: T3, LdtMab2 (Mycobacteroides abscessus, UniProt B1MMQ4); assay: as above; type: binding
T3 construct: gene MAB_1530
T3 sequence (B1MMQ4 42-406): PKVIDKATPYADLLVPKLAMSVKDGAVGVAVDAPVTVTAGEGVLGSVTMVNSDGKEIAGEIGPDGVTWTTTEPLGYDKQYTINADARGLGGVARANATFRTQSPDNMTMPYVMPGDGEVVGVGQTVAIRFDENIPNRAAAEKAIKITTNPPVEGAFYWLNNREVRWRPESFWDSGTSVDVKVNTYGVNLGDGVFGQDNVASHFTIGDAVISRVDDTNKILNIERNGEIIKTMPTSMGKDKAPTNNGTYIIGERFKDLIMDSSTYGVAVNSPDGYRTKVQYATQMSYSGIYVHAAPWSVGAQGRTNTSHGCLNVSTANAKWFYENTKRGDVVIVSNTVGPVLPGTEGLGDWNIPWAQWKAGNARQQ

[1] = system: O=C(Cc1cccs1)N[C@@H]1C(=O)N2C(C(=O)O)=C(/C=C/c3ccc([N+](=O)[O-])cc3[N+](=O)[O-])CS[C@H]12; assay: purified protein; type: biochemical, Mycobacteroides abscessus

Molecule | Kd (BlaMab) [nM] | timed ESI-MS of intact protein, +276 Da carbamoyl-enzyme adduct after 2 h (LdtMab4) | timed ESI-MS of intact protein, +278 Da carbamoyl-enzyme adduct after 2 h (LdtMab2) | Km [1] [µM]
CC1=C[C@@H]2CN(C(=O)N2OS(=O)(=O)O)[C@@H]1C(N)=O [DUR, durlobactam] | 0.2 ± 0.1 | DUR formed carbamoyl-enzyme complexes with D,D-c (Fig. 3B), LdtMab2, and LdtMab4 (Fig. 3C and E). | DUR formed carbamoyl-enzyme complexes with D,D-c (Fig. 3B), LdtMab2, and LdtMab4 (Fig. 3C and E). | 
BlaMab (Mycobacteroides abscessus ATCC 19977) |  |  |  | 22
